Assay: xn = mol fraction of the nth substance listed
Conditions: Liquid, Pycnometric method

Cc1cc(C)cc(C)c1 [1,3,5-trimethylbenzene] + C1COCCO1
mass density [kg/m3]
Conditions | 288.15 K | 293.15 K | 298.15 K | 303.15 K | 308.15 K | 313.15 K | 318.15 K
x2 = 0 | 869.28 | 865.37 | 861.45 | 857.54 | 853.63 | 849.71 | 845.8
x2 = 0.0696 | 876.28 | 872.24 | 868.2 | 864.16 | 860.13 | 856.1 | 852.07
x2 = 0.1408 | 883.83 | 879.67 | 875.52 | 871.37 | 867.22 | 863.07 | 858.92
x2 = 0.2098 | 891.62 | 887.36 | 883.1 | 878.84 | 874.59 | 870.34 | 866.09
x2 = 0.28 | 900.04 | 895.68 | 891.32 | 886.96 | 882.6 | 878.25 | 873.9
x2 = 0.3558 | 909.87 | 905.4 | 900.93 | 896.46 | 892 | 887.54 | 883.08
x2 = 0.4276 | 919.97 | 915.4 | 910.83 | 906.26 | 901.7 | 897.14 | 892.58
x2 = 0.5066 | 932.03 | 927.35 | 922.67 | 917.99 | 913.32 | 908.65 | 903.98
x2 = 0.5801 | 944.34 | 939.54 | 934.74 | 929.94 | 925.14 | 920.34 | 915.54
x2 = 0.6548 | 957.96 | 953.01 | 948.06 | 943.12 | 938.18 | 933.25 | 928.32
x2 = 0.7227 | 971.44 | 966.36 | 961.28 | 956.21 | 951.14 | 946.07 | 941
x2 = 0.7936 | 986.75 | 981.51 | 976.27 | 971.04 | 965.81 | 960.58 | 955.35
x2 = 0.8663 | 1003.78 | 998.39 | 993 | 987.61 | 982.23 | 976.85 | 971.47
x2 = 0.9319 | 1020.49 | 1014.96 | 1009.43 | 1003.91 | 998.39 | 992.87 | 987.35

Cc1cccc(C)c1 [1,3-dimethylbenzene] + C1COCCO1
mass density [kg/m3]
Conditions | 288.15 K | 293.15 K | 298.15 K | 303.15 K | 308.15 K | 313.15 K | 318.15 K
x2 = 0 | 868.59 | 864.31 | 860.02 | 855.74 | 851.45 | 847.17 | 842.88
x2 = 0.0938 | 879.61 | 875.2 | 870.79 | 866.38 | 861.97 | 857.56 | 853.16
x2 = 0.1532 | 886.95 | 882.46 | 877.97 | 873.48 | 868.99 | 864.5 | 860.01
x2 = 0.2046 | 893.54 | 888.98 | 884.42 | 879.87 | 875.32 | 870.77 | 866.22
x2 = 0.2698 | 902.26 | 897.62 | 892.98 | 888.35 | 883.72 | 879.09 | 874.47
x2 = 0.3374 | 911.76 | 907.05 | 902.34 | 897.63 | 892.92 | 888.21 | 883.5
x2 = 0.4002 | 921.05 | 916.26 | 911.47 | 906.68 | 901.9 | 897.12 | 892.34
x2 = 0.4714 | 932.18 | 927.3 | 922.42 | 917.55 | 912.68 | 907.81 | 902.94
x2 = 0.5487 | 945 | 940.02 | 935.04 | 930.06 | 925.08 | 920.1 | 915.12
x2 = 0.63 | 959.44 | 954.33 | 949.22 | 944.11 | 939.01 | 933.91 | 928.81
x2 = 0.7182 | 976.23 | 970.98 | 965.73 | 960.49 | 955.25 | 950.01 | 944.77
x2 = 0.8035 | 993.74 | 988.36 | 982.98 | 977.6 | 972.23 | 966.86 | 961.5
x2 = 0.8708 | 1008.47 | 1002.99 | 997.51 | 992.03 | 986.56 | 981.09 | 975.62
x2 = 0.9324 | 1022.71 | 1017.15 | 1011.59 | 1006.03 | 1000.48 | 994.93 | 989.38

Cc1ccc(C)cc1 [1,4-dimethylbenzene] + C1COCCO1
mass density [kg/m3]
Conditions | 288.15 K | 293.15 K | 298.15 K | 303.15 K | 308.15 K | 313.15 K | 318.15 K
x2 = 0 | 865.52 | 861.17 | 856.82 | 852.47 | 848.12 | 843.77 | 839.42
x2 = 0.0716 | 874.09 | 869.64 | 865.2 | 860.76 | 856.32 | 851.88 | 847.44
x2 = 0.1445 | 883.22 | 878.69 | 874.16 | 869.64 | 865.12 | 860.6 | 856.08
x2 = 0.2132 | 892.23 | 887.63 | 883.03 | 878.43 | 873.83 | 869.23 | 864.63
x2 = 0.2871 | 902.41 | 897.73 | 893.05 | 888.37 | 883.69 | 879.02 | 874.35
x2 = 0.3582 | 912.76 | 908 | 903.24 | 898.49 | 893.74 | 888.99 | 884.24
x2 = 0.4358 | 924.73 | 919.88 | 915.03 | 910.19 | 905.35 | 900.51 | 895.67
x2 = 0.5042 | 935.9 | 930.97 | 926.04 | 921.12 | 916.2 | 911.28 | 906.36
x2 = 0.5846 | 949.87 | 944.84 | 939.81 | 934.78 | 929.76 | 924.74 | 919.72
x2 = 0.6543 | 962.76 | 957.63 | 952.5 | 947.38 | 942.26 | 937.14 | 932.02
x2 = 0.7249 | 976.61 | 971.38 | 966.15 | 960.92 | 955.69 | 950.46 | 945.23
x2 = 0.7923 | 990.62 | 985.27 | 979.92 | 974.58 | 969.25 | 963.92 | 958.59
x2 = 0.8623 | 1006.05 | 1000.6 | 995.15 | 989.7 | 984.25 | 978.8 | 973.35
x2 = 0.9311 | 1022.14 | 1016.58 | 1011.03 | 1005.48 | 999.93 | 994.38 | 988.83

C1COCCO1 [1,4-dioxane] + Cc1ccccc1
mass density [kg/m3]
Conditions | 288.15 K | 293.15 K | 298.15 K | 303.15 K | 308.15 K | 313.15 K | 318.15 K
x1 = 0.0688 | 881.09 | 876.32 | 871.54 | 866.76 | 861.99 | 857.21 | 852.43
x1 = 0.1373 | 890.67 | 885.84 | 881 | 876.16 | 871.33 | 866.49 | 861.65
x1 = 0.2112 | 901.34 | 896.45 | 891.55 | 886.65 | 881.75 | 876.85 | 871.95
x1 = 0.2858 | 912.47 | 907.51 | 902.55 | 897.58 | 892.62 | 887.66 | 882.7
x1 = 0.3552 | 923.15 | 918.13 | 913.11 | 908.08 | 903.06 | 898.04 | 893.02
x1 = 0.4361 | 936.02 | 930.92 | 925.82 | 920.72 | 915.63 | 910.54 | 905.45
x1 = 0.5064 | 947.57 | 942.41 | 937.25 | 932.09 | 926.93 | 921.77 | 916.61
x1 = 0.5819 | 960.38 | 955.15 | 949.92 | 944.69 | 939.46 | 934.23 | 929
x1 = 0.6506 | 972.39 | 967.1 | 961.8 | 956.5 | 951.21 | 945.92 | 940.63
x1 = 0.7212 | 985.11 | 979.74 | 974.37 | 969.01 | 963.65 | 958.29 | 952.93
x1 = 0.7903 | 997.93 | 992.49 | 987.06 | 981.63 | 976.2 | 970.77 | 965.34
x1 = 0.864 | 1012.02 | 1006.51 | 1001 | 995.5 | 989.99 | 984.49 | 978.99
x1 = 0.9336 | 1025.74 | 1020.16 | 1014.58 | 1009.01 | 1003.44 | 997.87 | 992.3
x1 = 1 | 1039.23 | 1033.59 | 1027.95 | 1022.32 | 1016.68 | 1011.05 | 1005.42

Source: the NIST ThermoML archive (doi:10.1021/je800579j)
